Source: PubChem BioAssay AID248 (DTP/NCI, 2004)
Toxic doses and inconclusive results are not listed. Rule as the data show it: active = T/C of 150% or more; inactive = T/C below 125%.

Test system: L1210 leukemia ip in BDF1 mice, survival T/C
Test: NCI In Vivo Anticancer Drug Screen. Data for tumor model L1210 Leukemia (intraperitoneal) in B6D2F1 (BDF1) mice
Conditions: endpoint: mean survival time, higher = longer survival
Outline: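 Ratio derived from survival: compound-dosed mice over vehicle-dosed mice, all bearing a transplantable tumor.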

[1] = dose: 100.0 mg/kg/injection, schedule: Q04DX003 (ip), vehicle: saline with Tween-80
[2] = dose: 200.0 mg/kg/injection, schedule: Q04DX003 (ip), vehicle: saline with Tween-80
[3] = dose: 400.0 mg/kg/injection, schedule: Q04DX003 (ip), vehicle: saline with Tween-80
[4] = dose: 6.25 mg/kg/injection, schedule: Q01DX009 (ip), vehicle: saline
[5] = dose: 12.5 mg/kg/injection, schedule: Q01DX009 (ip), vehicle: saline
[6] = dose: 200.0 mg/kg/injection, schedule: Q01DX009 (ip), vehicle: Klucel (hydroxypropylcellulose) (HPC)
[7] = dose: 400.0 mg/kg/injection, schedule: Q01DX009 (ip), vehicle: Klucel (hydroxypropylcellulose) (HPC)
[8] = dose: 100.0 mg/kg/injection, schedule: Q04DX002 (ip), vehicle: Klucel (hydroxypropylcellulose) (HPC)
[9] = dose: 200.0 mg/kg/injection, schedule: Q04DX002 (ip), vehicle: Klucel (hydroxypropylcellulose) (HPC)
[10] = dose: 400.0 mg/kg/injection, schedule: Q04DX002 (ip), vehicle: Klucel (hydroxypropylcellulose) (HPC)
[11] = dose: 100.0 mg/kg/injection, schedule: Q01DX009 (ip), vehicle: Klucel (hydroxypropylcellulose) (HPC)
[12] = dose: 50.0 mg/kg/injection, schedule: Q01DX009 (ip), vehicle: Klucel (hydroxypropylcellulose) (HPC)
[13] = dose: 100.0 mg/kg/injection, schedule: Q04DX003 (ip), vehicle: Klucel (hydroxypropylcellulose) (HPC)
[14] = dose: 200.0 mg/kg/injection, schedule: Q04DX003 (ip), vehicle: Klucel (hydroxypropylcellulose) (HPC)
[15] = dose: 400.0 mg/kg/injection, schedule: Q04DX003 (ip), vehicle: Klucel (hydroxypropylcellulose) (HPC)
[16] = dose: 100.0 mg/kg/injection, schedule: Q01DX009 (ip), vehicle: saline with Tween-80
[17] = dose: 200.0 mg/kg/injection, schedule: Q01DX009 (ip), vehicle: saline with Tween-80
[18] = dose: 50.0 mg/kg/injection, schedule: Q04DX002 (ip), vehicle: Klucel (hydroxypropylcellulose) (HPC)
[19] = dose: 100.0 mg/kg/injection, schedule: Q01DX001 (ip), vehicle: saline
[20] = dose: 200.0 mg/kg/injection, schedule: Q01DX001 (ip), vehicle: saline
[21] = dose: 400.0 mg/kg/injection, schedule: Q01DX001 (ip), vehicle: saline

Measured: T/C

CC1CCCN(C(=O)Nc2cccc(C(F)(F)F)c2)C1 (configuration not stated)
inactive: dose: 100.0 mg/kg/injection, schedule: Q01DX009 (ip), vehicle: gum acacia 100 % of control | dose: 200.0 mg/kg/injection, schedule: Q01DX009 (ip), vehicle: gum acacia 110 % of control | dose: 400.0 mg/kg/injection, schedule: Q01DX009 (ip), vehicle: gum acacia 99 % of control

CC(C)CN(CC(C)C)c1ccc([N+](=O)[O-])cc1[N+](=O)[O-]
inactive: [1] 94 % of control | [2] 98 % of control | [3] 96 % of control

C[Se]c1ncnc2c(C3OC(CO)C(O)C3O)[nH]nc12 (configuration not stated)
inactive: dose: 3.12 mg/kg/injection, schedule: Q01DX005 (ip), vehicle: saline 106 % of control | dose: 3.12 mg/kg/injection, schedule: Q01DX009 (ip), vehicle: saline 112 % of control | dose: 6.25 mg/kg/injection, schedule: Q01DX005 (ip), vehicle: saline 109 % of control | [4] 94 % of control | dose: 12.5 mg/kg/injection, schedule: Q01DX005 (ip), vehicle: saline 104 % of control | [5] 91 % of control

CN(C)CC/C=C1/c2ccccc2COc2ccccc21
inactive: dose: 6.12 mg/kg/injection, schedule: Q01DX001 (ip), vehicle: water 111 % of control | [4] 103 % of control | dose: 12.5 mg/kg/injection, schedule: Q01DX001 (ip), vehicle: water 113 % of control | [5] 107 % of control | dose: 25.0 mg/kg/injection, schedule: Q01DX001 (ip), vehicle: water 103 % of control | dose: 25.0 mg/kg/injection, schedule: Q01DX009 (ip), vehicle: saline 101 % of control | dose: 25.0 mg/kg/injection, schedule: Q04DX003 (ip), vehicle: saline 109 % of control | dose: 50.0 mg/kg/injection, schedule: Q01DX009 (ip), vehicle: saline 113 % of control | dose: 50.0 mg/kg/injection, schedule: Q04DX003 (ip), vehicle: saline 101 % of control | dose: 100.0 mg/kg/injection, schedule: Q04DX003 (ip), vehicle: saline 93 % of control

O=C(CC(NC(=O)OCc1ccccc1)C(=O)OCc1ccccc1)OCc1ccccc1 (configuration not stated)
inactive: [6] 88 % of control | [7] 89 % of control

COc1cccc(CCO)c1OC
inactive: dose: 50.0 mg/kg/injection, schedule: Q01DX001 (ip), vehicle: carboxymethylcellulose (CMC) 88 % of control | dose: 100.0 mg/kg/injection, schedule: Q01DX001 (ip), vehicle: carboxymethylcellulose (CMC) 91 % of control | dose: 200.0 mg/kg/injection, schedule: Q01DX001 (ip), vehicle: carboxymethylcellulose (CMC) 88 % of control | dose: 400.0 mg/kg/injection, schedule: Q01DX001 (ip), vehicle: carboxymethylcellulose (CMC) 98 % of control

Cn1ncc2c(N)[nH]nc21
inactive: dose: 75.0 mg/kg/injection, schedule: Q01DX001 (ip), vehicle: saline 107 % of control | dose: 150.0 mg/kg/injection, schedule: Q01DX001 (ip), vehicle: saline 90 % of control | dose: 300.0 mg/kg/injection, schedule: Q01DX001 (ip), vehicle: saline 98 % of control

O=C(COc1cc(Cl)c(Cl)cc1Cl)Oc1ccc(Cl)cc1Cl
inactive: [8] 94 % of control | [9] 91 % of control | [10] 98 % of control

O=Nc1ccc(O)cc1I
inactive: [8] 100 % of control | [9] 97 % of control | [10] 93 % of control

c1csc(CNCCN2CC2)c1
inactive: dose: 2.5 mg/kg/injection, schedule: Q01DX009 (ip), vehicle: saline 89 % of control | dose: 2.5 mg/kg/injection, schedule: Q04DX003 (ip), vehicle: saline 95 % of control | dose: 5.0 mg/kg/injection, schedule: Q04DX003 (ip), vehicle: saline 103 % of control | dose: 10.0 mg/kg/injection, schedule: Q04DX003 (ip), vehicle: saline 100 % of control

Nc1ccccn1
inactive: dose: 12.5 mg/kg/injection, schedule: Q04DX002 (ip), vehicle: saline 100 % of control | dose: 25.0 mg/kg/injection, schedule: Q04DX002 (ip), vehicle: saline 89 % of control

O=C(Nc1cccc(F)c1)Nc1cccc([N+](=O)[O-])c1
inactive: [11] 102 % of control | [6] 102 % of control | [7] 97 % of control

c1ccc(CNCc2ccccc2)cc1
inactive: [12] 93 % of control | [11] 93 % of control | [13] 95 % of control | [6] 100 % of control | [14] 95 % of control

NC(=O)CC1CCCCC1
inactive: [13] 97 % of control | [14] 105 % of control | [15] 103 % of control

Cc1cc(C)nc(NCC(=O)O)n1
inactive: dose: 50.0 mg/kg/injection, schedule: Q04DX002 (ip), vehicle: saline 95 % of control | dose: 100.0 mg/kg/injection, schedule: Q04DX002 (ip), vehicle: saline 95 % of control | dose: 200.0 mg/kg/injection, schedule: Q04DX002 (ip), vehicle: saline 95 % of control

C#CC(C)(O)c1ccccc1 (configuration not stated)
inactive: [11] 98 % of control | [6] 98 % of control

Ic1cccc(Oc2ccccc2)c1
inactive: [16] 114 % of control | [17] 91 % of control

O=C(O)c1ccc(S(=O)(=O)N(Cl)Cl)cc1
inactive: [16] 96 % of control | [17] 100 % of control | dose: 400.0 mg/kg/injection, schedule: Q01DX009 (ip), vehicle: saline with Tween-80 98 % of control

O=C(Nc1ccc(F)cc1)NN1CCOCC1
inactive: [12] 104 % of control | [11] 90 % of control | [6] 97 % of control

O=C(Nc1ccc(Nc2ccncc2)cc1)c1ccc([N+](=O)[O-])cc1
inactive: [11] 105 % of control | [13] 103 % of control | [6] 92 % of control | [14] 98 % of control | [7] 105 % of control | [15] 95 % of control

CC(C)CC(CC(C)C)NCCOC(=O)c1ccc(N)cc1
inactive: dose: 75.0 mg/kg/injection, schedule: Q01DX001 (ip), vehicle: other 106 % of control | dose: 150.0 mg/kg/injection, schedule: Q01DX001 (ip), vehicle: other 103 % of control

O=C(c1c(F)c(F)c(F)c(F)c1F)N1CC1
inactive: dose: 25.0 mg/kg/injection, schedule: Q01DX009 (ip), vehicle: water 96 % of control | dose: 50.0 mg/kg/injection, schedule: Q01DX009 (ip), vehicle: water 93 % of control

O=[N+]([O-])c1ccc(S(=O)NOCc2ccccc2)cc1 (configuration not stated)
inactive: [11] 96 % of control | [6] 94 % of control | [7] 91 % of control

O=C(OCc1ccccc1CN1CCCCC1)c1ccc(Cl)cc1
inactive: dose: 25.0 mg/kg/injection, schedule: Q04DX002 (ip), vehicle: Klucel (hydroxypropylcellulose) (HPC) 102 % of control | [18] 105 % of control | [8] 107 % of control

Nc1[nH]c(=S)ncc1-c1ccccc1Cl
inactive: dose: 6.25 mg/kg/injection, schedule: Q01DX009 (ip), vehicle: Klucel (hydroxypropylcellulose) (HPC) 94 % of control | dose: 12.5 mg/kg/injection, schedule: Q01DX009 (ip), vehicle: Klucel (hydroxypropylcellulose) (HPC) 94 % of control | dose: 25.0 mg/kg/injection, schedule: Q01DX009 (ip), vehicle: Klucel (hydroxypropylcellulose) (HPC) 97 % of control | [11] 88 % of control

CS(=O)(=O)OC1COC(c2ccccc2)OC1C1OC(c2ccccc2)OCC1OS(C)(=O)=O (configuration not stated)
inactive: [18] 98 % of control | [8] 98 % of control | [9] 109 % of control

O=C1OCCN1S(=O)(=O)c1ccc(Cl)cc1
inactive: [13] 104 % of control | [14] 95 % of control | [15] 96 % of control

CC(C)(C)C(=O)CC(=O)C(C)(C)C.CC(C)(C)C(=O)CC(=O)C(C)(C)C.CC(C)(C)C(=O)CC(=O)C(C)(C)C.CC(C)(C)C(=O)CC(=O)C(C)(C)C.[Er]
inactive: [1] 108 % of control | [2] 92 % of control | [3] 88 % of control

NC(=O)NC1CC1c1ccccc1 (configuration not stated)
inactive: [19] 101 % of control | [20] 95 % of control | [21] 120 % of control

C/C(=N/N(C)C)c1cccc(N)c1
inactive: [19] 98 % of control | [20] 93 % of control | [21] 101 % of control
